Data reported in patent publication EP0889886B1, “NOVEL PHENANTHRIDINES SUBSTITUTED IN THE 6 POSITION” (ALTANA Pharma AG, priority 1996, dated 1997).
Counter-ions that a name gives are not always drawn.

System: PDE IV
Assay: Inhibition of PDE IV activity (method of Bauer and Schwabe, adapted to microtiter plates)
Type: biochemical
Settings: Hemmung der PDE IV-Aktivität
Procedure: Hierbei erfolgt im ersten Schritt die PDE-Reaktion. In einem zweiten Schritt wird das entstandene 5'-Nukleotid durch eine 5'-Nukleotidase des Schlangengiftes von Crotalus Atrox zum ungeladenen Nukleosid gespalten. Im dritten Schritt wird das Nukleosid auf lonenaustauschsäulen vom verbliebenen geladenen Substrat getrennt. Die Säulen werden mit 2 ml 30 mM Ammoniumformiat (pH 6,0) direkt in Minivials eluiert, in die noch 2 ml Szintillatorflüssigkeit zur Zählung gegeben wird.

Compound	-log IC50
COc1cc2c(cc1OC)[C@H]1CC(C)=C(C)C[C@H]1N=C2c1ccc(NS(=O)(=O)c2ccc(C)cc2)cc1 (racemic) [Verbindung 8, (+/-)-cis-8,9-Dimethoxy-2,3-dimethyl-6-(4-p-toluolsulfonamidophenyl)-1,4,4a,10b-tetrahydrophenanthridin]	6.91
CCOc1cc2c(cc1OC)C(c1ccc(N(C)S(=O)(=O)c3ccc(C)cc3)cc1)=N[C@@H]1CCCC[C@H]21 (racemic) [Verbindung 36, (+/-)-cis-9-Ethoxy-8-methoxy-6-[(N-methyl-4-p-toluolsulfonamido)phenyl]-1,2,3,4,4a,10bhexahydrophenanthridin]	9.09
COc1cc2c(cc1OC)[C@@H]1CCCC[C@@H]1N=C2c1ccc(N(S(=O)(=O)c2ccc([N+](=O)[O-])cc2)S(=O)(=O)c2ccc([N+](=O)[O-])cc2)cc1 (racemic) [Verbindung 30, (+/-)-cis-8,9-Dimethoxy-6-[4-bis(p-nitrophenylsulfonyl)aminophenyl]-1,2,3,4,4a,10b-hexahydrophenanthridin]	7.36
CCOc1cc2c(cc1OCC)[C@@H]1CCCC[C@@H]1N=C2c1ccc(Cc2ccccc2)cc1 (racemic) [Verbindung 14, (+/-)-cis-6-(4-Benzylphenyl)-8,9-diethoxy-1,2,3,4,4a,10b-hexahydrophenanthridin]	8.08
COc1cc2c(cc1OC)[C@H]1CCCC[C@H]1N=C2c1ccc(N(C(C)=O)S(=O)(=O)c2ccc(C)cc2)cc1 (racemic) [Verbindung 34, (+/-)-cis-8,9-Dimethoxy-6-[(N-acetyl-4-p-toluolsulfonamido)phenyl]-1,2,3,4,4a,10b-hexahydrophenanthridin]	7.42
COc1ccc(C2=N[C@H]3CCCC[C@H]3c3cc(OC)c(OC)cc32)cc1OC (racemic) [Verbindung 7, (+/-)-cis-8,9-Dimethoxy-6-(3,4-dimethoxyphenyl)-1,2,3,4,4a,10b-hexahydrophenanthridin]	6.44
CCOc1cc2c(cc1OC)C(c1ccc(NS(=O)(=O)c3ccc(C)cc3)cc1)=N[C@@H]1CCCC[C@H]21 (racemic) [Verbindung 20, (+/-)-cis-9-Ethoxy-8-methoxy-6-(4-p-toluolsulfonamidophenyl)-1,2,3,4,4a,10b-hexahydrophenanthridin]	9.05
CCOc1cc2c(cc1OCC)[C@H]1CCCC[C@H]1N=C2c1ccc(Cl)nc1 (racemic) [Verbindung 26, (+/-)-cis-8,9-Diethoxy-6-(2-chiorpyrid-5-yl)-1,2,3,4,4a,10b-hexahydrophenanthridin]	8.41
COc1cc2c(cc1OC)[C@@H]1CCCC[C@@H]1N=C2c1ccc([N+](=O)[O-])cc1 (racemic) [Verbindung 5, (+/-)-cis-8,9-Dimethoxy-6-(4-nitrophenyl)-1,2,3,4,4a,10b-hexahydrophenanthridin]	7.22
CCOc1cc2c(cc1OCC)[C@@H]1CCCC[C@@H]1N=C2c1ccncc1.Cl.Cl (racemic) [Verbindung 24, (+/-)-cis-8,9-Diethoxy-6-(pyrid-4-yl)-1,2,3,4,4a,10b-hexahydrophenanthridin-dihydrochlorid]	8.08
COc1cc2c(cc1OC1CCCC1)[C@H]1CCCC[C@H]1N=C2c1ccc(NS(=O)(=O)c2ccc(C)cc2)cc1 (racemic) [Verbindung 3, (+/-)-cis-9-Cyclopentyloxy-8-methoxy-6-(4-p-toluolsulfonamidophenyl)-1,2,3,4,4a,10bhexahydrophenanthridin]	7.76
COc1cc2c(cc1OC)[C@H]1CCCC[C@H]1N=C2c1ccc(NS(=O)(=O)c2ccc(C)cc2)cc1 (racemic) [Verbindung 1, (+/-)-cis-8,9-Dimethoxy-6-(4-p-toluolsulfonamidophenyl)-1,2,3,4,4a,10b-hexahydrophenanthridin]	7.73
CCOc1cc2c(cc1OCC)[C@H]1CCCC[C@H]1N=C2c1ccc(NS(=O)(=O)c2ccc(C)cc2)cc1 (racemic) [Verbindung 2, (+/-)-cis-8,9-Diethoxy-6-(4-p-toluolsulfonamidophenyl)-1,2,3,4,4a,10b-hexahydrophenanthridin]	8.39
CCOc1cc2c(cc1OC)C(c1ccc(S(C)(=O)=O)cc1)=N[C@H]1CCCC[C@@H]21 (racemic) [Verbindung 22, (+/-)-cis-9-Ethoxy-8-methoxy-6-(4-methansulfonylphenyl)-1,2,3,4,4a,10b-hexahydrophenanthridin]	8.66
CCOc1cc2c(cc1OCC)[C@H]1CCCC[C@H]1N=C2c1ccc(OC(F)(F)F)cc1 (racemic) [Verbindung 19, (+/-)-cis-8,9-Diethoxy-6-(4-trifluormethoxyphenyl)-1,2,3,4,4a,10b-hexahydrophenanthridin]	7.97
COc1cc2c(cc1OC)[C@H]1CCCC[C@H]1N=C2c1c(Cl)cccc1Cl (racemic) [Verbindung 6, (+/-)-cis-8,9-Dimethoxy-6-(2,6-dichlorphenyl)-1,2,3,4,4a,10b-hexahydrophenanthridin]	6.77
CCOc1cc2c(cc1OC)C(c1ccc(NS(=O)(=O)c3ccc(C(=O)OC)cc3)cc1)=N[C@@H]1CCCC[C@H]21 (racemic) [Verbindung 23, (+/-)-cis-9-Ethoxy-8-methoxy-6-[4-(4-methoxycarbonylphenyl)sulfonamidophenyl]-1,2,3,4,4a,10b-hexahvdrophenanthridin Hydrochlorid]	8.70
CCOc1cc2c(cc1OC)C(c1ccc([N+](=O)[O-])cc1)=N[C@H]1CCCC[C@@H]21 (racemic) [Verbindung 21, (+/-)-cis-9-Ethoxy-8-methoxy-6-(4-nitrophenyl)-1,2,3,4,4a,10b-hexahydrophenanthridin]	8.46
COc1cc2c(cc1OC)[C@H]1CCCC[C@H]1N=C2c1ccc(N(S(=O)(=O)c2ccc(C)cc2)S(=O)(=O)c2ccc(C)cc2)cc1 (racemic) [Verbindung 33, (+/-)-cis-8,9-Dimethoxy-6-[4-bis(p-toluolsulfonyl)aminophenyl]-1,2,3,4,4a,10b-hexahydrophenanthridin]	7.27
CCOc1cc2c(cc1OCC)[C@H]1CCCC[C@H]1N=C2c1ccc(N(C(C)=O)S(=O)(=O)c2ccc(C)cc2)cc1 (racemic) [Verbindung 35, (+/-)-cis-8,9-Diethoxy-6-[(N-acetyl-4-p-toluolsulfonamido]phenyl]-1,2,3,4,4a,10b-hexahydrophenanthridin]	7.81
CCOc1cc2c(cc1OCC)[C@H]1CCCC[C@H]1N=C2c1ccc(F)cc1 (racemic) [Verbindung 16, (+/-)-cis-8,9-Diethoxy-6-(4-fluorphenyl)-1,2,3,4,4a,10b-hexahvdrophenanthridin]	7.93
